In patent US6492174B1, “Methods of initiating embryogenic cultures in plants” (Institute of Paper Science & Technology, priority 2000, dated 2002):

Key:
Type in all cases: cell-based
[1] = tested on: Douglas fir stage 3-5 zygotic embryos attached to megagametophytes; assay: Douglas fir initiation on solid media #121 with brassinolide, ABA, ABA pre-soak or elevated pressure; details: +0.1 μM Br in media #121
Excerpt: The explants used in this experiment were isolated from Douglas fir cones collected in mid-summer from four open-pollinated trees, representing a multiplicity of genotypes. Explants were stage 3-5 (early-midstage) zygotic embryos attached to megagametophytes, prepared as described in Example 2. The embryo and attached megagametophyte were then placed next to each other on the treatment media. As in Example 2, each replication consisted of ten explants in a single petri dish. Each treatment contained four replications per treatment, per genotype.
The treatment media were based on solid media #121, the composition of which is described in Table 5. Media #121 contains no ABA or brassinolide. Treatment #1, the control, consisted of explants cultured on media #121 alone. In Treatment #2, explants were cultured on media #121 containing 0.1 μM brassinolide. In Treatment #3, explants were cultured on media #121 containing 1 ppm ABA. In treatment #4, explants were soaked in liquid media containing 5 ppm ABA for 30 minutes prior to being placed on #121 media. In Treatment #5, explants were cultured on media #121 under 1.5 atmospheres of pressure. The petri dishes were wrapped in PARAFILM and incubated at 23-24° C. in the dark.

[2] = tested on: Norway spruce zygotic embryos; assay: Norway spruce initiation on solid media #56 with ABA, brassinolide or elevated pressure, ten weeks; details: 0.1 pM brassinolide added to medium #56
Protocol: Explants were zygotic embryos flipped out of the megagametophyte, prepared as in Example 1. The experiment consisted of five replications, with a replication consisting of ten explants in a single petri dish. Explants were cultured on solid media #56 (Table 3). Treatment #1 consisted of explants on media #56. In Treatment #2, the medium additionally contained 1 ppm ABA. In Treatment #3, the media contained […] brassinolide. In Treatment #4, the explants were cultured under 1.5 atmospheres of pressure. After ten weeks, the explants were examined and the frequency of embryogenic culture initiation was scored (Table 43).

[3] = tested on: Loblolly pine megagametophytes; assay: 30 minute abscisic acid soaking pre-treatment, culture on solid media #1042 with or without 0.1 μM brassinolide, eight weeks; details: 0 ppm ABA/ +Br (0.10 μM)
Protocol: In this experiment, the effects of ovule pre-treatment by soaking with abscisic acid solutions of varying concentration was investigated. The abscisic acid treatment was tested on two media, one containing brassinolide and one lacking in brassinolide. The explants were megagametophytes from open pollinated summer cones of four individual trees, representing a multiplicity of genotypes. The seeds contained Stage 2-4 zygotic embryos. Megagametophytes were excised from sterilized seeds, as described in Example 4.
Prior to culturing, the megagametophytes were soaked for 30 minutes in liquid growth media (media #1042, Table 47, minus the gelling agent) containing 0, 5, 10 and 20 ppm abscisic acid. After soaking, the megagametophytes were placed on either one of two solid growth media. While still liquid, 2 ml media was poured into wells on a culture well plate and allowed to solidify. Half the soaked megagametophytes were placed on solid media #1042 (Table 47) and half were placed on solid media #1042 with 0.1 μM brassinolide added.
On solid media where brassinolide was present, there was a dramatic difference in extrusion and initiation between megagametophytes soaked in zero and 5 ppm ABA solutions (Treatments #5 and #6) compared to those soaked in 10 and 20 ppm ABA solutions (Treatments #7 and #8). […] In contrast, megagametophytes treated with higher amounts of ABA in Treatments 7 and 8 had the highest initiation frequencies of any treatment. […] Alternatively, there may have been an interaction between brassinolide and ABA such that low ABA plus brassinolide inhibits extrusion, with this inhibition overcome when ABA concentration is higher.

[4] = tested on: Loblolly pine megagametophytes; assay: Elevated pressure in combination with brassinolide, ABA pre-soak or liquid media #1038, 8 weeks; details: for % Megagametophytes Extruding / % Megagametophytes Initiating: Br 0.1 μM in media #1042, ABA soak 5 ppm 30 minute
Protocol: The previous examples indicate that elevated pressure can enhance extrusion and initiation. This experiment was designed to test the effect of elevated pressure in combination with other treatments to determine the optimal conditions for promoting extrusion and initiation.
Megagametophytes in some treatments received a 30 minute pre-culturing soak in liquid media (#1042 minus the gelling agent) containing 5 ppm ABA. Megagametophytes in Treatments 9 and 10 were fully immersed in liquid media #1038. The experiment consisted of three replications per treatment, per genotype.
Five different treatments were used, each cultured under 1.0 or 1.5 atmospheres for a total of ten treatments (See Table 33).
After 8 weeks culturing, the treatments were scored. Extrusion and initiation were increased by elevated pressure in all treatments.

[5] = genotype 7-100, + Pressure 1.5 atm
[6] = genotype 11-1095, + Pressure 1.5 atm
[7] = genotype 21-6, + Pressure 1.5 atm

With `CC(C)[C@H](C)[C@@H](O)[C@H](O)[C@@H](C)[C@H]1CC[C@H]2[C@@H]3COC(=O)[C@H]4C[C@H](O)[C@H](O)C[C@]4(C)[C@H]3CC[C@]12C` [brassinolide] the “% of Megagametophytes Initiating - Mean” value ([1]; genotype T0232l) was 27.8%, the “% of Megagametophytes Initiating - Mean” value ([1]; genotype T0235l) was 21.8% and the “% of Megagametophytes Initiating - Mean” value ([1]; genotype T0293l) was 34.6%. The “% of Megagametophytes Initiating - Mean” value ([1]; genotype T0525l) was 30.0%, the “% of Megagametophytes Initiating - Mean” value ([1]; total) was 31.1% and the “% Initiating (std. error)” value [2] was 46.2 (6.1) %. The “% Megagametophytes Extruding” value ([3]; genotype 7-1051) was 13.3 (6.7) %, the “Embryogenic Culture Initiation - % Megagametophytes Extruding” value ([3]; genotype 7-1051) was 0.0 (0.0) % and the “% Megagametophytes Extruding” value ([3]; genotype M7-56) was 3.3 (3.3) %. For the same compound, the “Embryogenic Culture Initiation - % Megagametophytes Extruding” value ([3]; genotype M7-56) was 0.0 (0.0) %, the “% Megagametophytes Extruding” value ([3]; genotype TC5-1501) was 0.0 (0.0) % and the “Embryogenic Culture Initiation - % Megagametophytes Extruding” value ([3]; genotype TC5-1501) was 0.0 (0.0) %. For the same compound, the “% Megagametophytes Extruding” value ([3]; genotype TC11-109) was 0.0 (0.0) %, the “Embryogenic Culture Initiation - % Megagametophytes Extruding” value ([3]; genotype TC11-109) was 0.0 (0.0) % and the “% Megagametophytes Extruding” value ([3]; total) was 4.2%. For the same compound, the “Embryogenic Culture Initiation - % Megagametophytes Extruding” value ([3]; total) was 0%, the “% Megagametophytes Extruding” value ([4]; Total, 1.0 atm) was 32.2% and the “% Megagametophytes Initiating” value ([4]; Total, 1.0 atm) was 24.2%. For the same compound, the “% Megagametophytes Extruding” value ([4]; Total, + Pressure 1.5 atm) was 55.9%, the “% Megagametophytes Initiating” value ([4]; Total, + Pressure 1.5 atm) was 38.7% and the “increase of initiation frequency by pressure” value ([4]; Treatment #4 vs. #3) was “over 60%”. The “% Megagametophytes Extruding” value ([4]; genotype 7-100, 1.0 atm) was 3.3 (3.3) %, the “% Megagametophytes Initiating” value ([4]; genotype 7-100, 1.0 atm) was 0.0 (0.0) % and the “% Megagametophytes Extruding” value [4, 5] was 43.3 (8.8) %. The “% Megagametophytes Initiating” value [4, 5] was 20.0 (5.8) %, the “% Megagametophytes Extruding” value ([4]; genotype 11-1095, 1.0 atm) was 56.7 (6.7) % and the “% Megagametophytes Initiating” value ([4]; genotype 11-1095, 1.0 atm) was 39.2 (11.6) %. The “% Megagametophytes Extruding” value [4, 6] was 50.0 (21.7) %, the “% Megagametophytes Initiating” value [4, 6] was 39.2 (18.6) % and the “% Megagametophytes Extruding” value ([4]; genotype 21-6, 1.0 atm) was 36.7 (6.7) %. For the same compound, the “% Megagametophytes Initiating” value ([4]; genotype 21-6, 1.0 atm) was 33.3 (8.8) %, the “% Megagametophytes Extruding” value [4, 7] was 74.4 (12.4) % and the “% Megagametophytes Initiating” value [4, 7] was 56.9 (13.7) %.
